This data set has as its system CCRIS mutagenicity, Ames/micronucleus/aberration tests. Nature of the data set: CCRIS mutagenicity studies.
Setting [1] is: Test System: AMES SALMONELLA TYPHIMURIUM, Strain/Indicator: TA92, Metabolic Activation: NONE, Method: SPOT TEST.
Setting [2] is: Test System: AMES SALMONELLA TYPHIMURIUM, Strain/Indicator: TA92, Metabolic Activation: RAT, LIVER, S-9, AROCLOR 1254, Method: SPOT TEST.
The mark [3] stands for this setting: Test System: AMES SALMONELLA TYPHIMURIUM, Strain/Indicator: TA94, Metabolic Activation: NONE, Method: SPOT TEST.
The mark [4] stands for this setting: Test System: AMES SALMONELLA TYPHIMURIUM, Strain/Indicator: TA94, Metabolic Activation: RAT, LIVER, S-9, AROCLOR 1254, Method: SPOT TEST.
The mark [5] stands for this setting: Test System: AMES SALMONELLA TYPHIMURIUM, Strain/Indicator: TA97, Metabolic Activation: NONE, Method: SPOT TEST.
The mark [6] stands for this setting: Test System: AMES SALMONELLA TYPHIMURIUM, Strain/Indicator: TA97, Metabolic Activation: RAT, LIVER, S-9, AROCLOR 1254, Method: SPOT TEST.
The mark [7] stands for this setting: Test System: AMES SALMONELLA TYPHIMURIUM, Strain/Indicator: TA98, Metabolic Activation: NONE, Method: SPOT TEST.
The mark [8] stands for this setting: Test System: AMES SALMONELLA TYPHIMURIUM, Strain/Indicator: TA98, Metabolic Activation: RAT, LIVER, S-9, AROCLOR 1254, Method: SPOT TEST.
[9] abbreviates: Test System: AMES SALMONELLA TYPHIMURIUM, Strain/Indicator: TA100, Metabolic Activation: NONE, Method: SPOT TEST.
Where [10] appears, read: Test System: AMES SALMONELLA TYPHIMURIUM, Strain/Indicator: TA100, Metabolic Activation: RAT, LIVER, S-9, AROCLOR 1254, Method: SPOT TEST.
Where [11] appears, read: Test System: AMES SALMONELLA TYPHIMURIUM, Strain/Indicator: TA102, Metabolic Activation: NONE, Method: SPOT TEST.
Setting [12] is: Test System: AMES SALMONELLA TYPHIMURIUM, Strain/Indicator: TA102, Metabolic Activation: RAT, LIVER, S-9, AROCLOR 1254, Method: SPOT TEST.
[13] abbreviates: Test System: AMES SALMONELLA TYPHIMURIUM, Strain/Indicator: TA98, Metabolic Activation: NONE, Method: STANDARD PLATE.
[14] abbreviates: Test System: AMES SALMONELLA TYPHIMURIUM, Strain/Indicator: TA100, Metabolic Activation: NONE, Method: STANDARD PLATE.
Where [15] appears, read: Test System: AMES SALMONELLA TYPHIMURIUM, Strain/Indicator: TA98, Metabolic Activation: NONE, Method: PREINCUBATION
[16] abbreviates: Test System: AMES SALMONELLA TYPHIMURIUM, Strain/Indicator: TA98, Metabolic Activation: RAT, LIVER, S-9, AROCLOR 1254, Method: PREINCUBATION
[17] abbreviates: Test System: AMES SALMONELLA TYPHIMURIUM, Strain/Indicator: TA100, Metabolic Activation: NONE, Method: PREINCUBATION
Where [18] appears, read: Test System: AMES SALMONELLA TYPHIMURIUM, Strain/Indicator: TA100, Metabolic Activation: RAT, LIVER, S-9, AROCLOR 1254, Method: PREINCUBATION

The source made the active and inactive calls. No rule for the calls is given here.

Consider `C=CC(C)(C)c1cc2cc3c(cc2oc1=O)OC(C(C)(C)O)C3` (stereo not drawn), for which the mutagenic call under setting [1] is “inactive; negative”; the mutagenic call under setting [2] was “inactive; negative”; the mutagenic call under setting [3] is “inactive; negative”; the mutagenic call under setting [4] was “inactive; negative”; the mutagenic call under setting [5] was “active; positive”; the mutagenic call under setting [6] is “inactive; negative”. For the same molecule, the mutagenic call is, setting by setting: under setting [7], “active; positive”; under setting [8], “inactive; negative”; under setting [9], “active; positive”; under setting [10], “inactive; negative”; under setting [11], “inactive; negative”; under setting [12], “inactive; negative”.

In the case of `O=[N+]([O-])c1cccc2c1-c1cccc3cccc-2c13`, the mutagenic call under setting [13] was “active; positive”.

For the molecule `CC(=O)OC1Cc2c(C)ccc3cc4c(ccc5ccccc54)c1c23` (stereo not drawn), the mutagenic call is, setting by setting: under setting [13], “active; positive”; under setting [14], “active; positive”.

As to `O=C1c2ccccc2-c2c1ccc1ccccc21`, the mutagenic call (Test System: AMES SALMONELLA TYPHIMURIUM, Strain/Indicator: TA100, Metabolic Activation: RAT, LIVER, S-9, AROCLOR 1254, Method: STANDARD PLATE) was “active; positive”.

For the molecule `CC1(C)O[C@H]1COc1c2ccoc2cc2oc(=O)ccc12`, the mutagenic call by setting is: under setting [1], “inactive; negative”; under setting [2], “inactive; negative”; under setting [3], “inactive; negative”; under setting [4], “inactive; negative”; under setting [5], “inactive; negative”; under setting [6], “inactive; negative”. Also, the mutagenic call under setting [7] is “inactive; negative”; the mutagenic call under setting [8] was “inactive; negative”; the mutagenic call under setting [9] is “inactive; negative”; the mutagenic call under setting [10] is “inactive; negative”; the mutagenic call under setting [11] is “inactive; negative”; the mutagenic call under setting [12] is “inactive; negative”.

For the molecule `Cc1nccc2c1[nH]c1ccccc12`, the mutagenic call is “active; positive” (Test System: AMES SALMONELLA TYPHIMURIUM, Strain/Indicator: TA97, Metabolic Activation: NONE, Method: PREINCUBATION); “inactive; negative” (Test System: AMES SALMONELLA TYPHIMURIUM, Strain/Indicator: TA97, Metabolic Activation: RAT, LIVER, S-9, AROCLOR 1254, Method: PREINCUBATION); “inactive; negative” under setting [15]; “inactive; negative” under setting [16]; “inactive; negative” under setting [17]; “inactive; negative” under setting [18]. In addition, the mutagenic call is “inactive; negative” (Test System: AMES SALMONELLA TYPHIMURIUM, Strain/Indicator: TA102, Metabolic Activation: NONE, Method: PREINCUBATION) and “inactive; negative” (Test System: AMES SALMONELLA TYPHIMURIUM, Strain/Indicator: TA102, Metabolic Activation: RAT, LIVER, S-9, AROCLOR 1254, Method: PREINCUBATION).

With `Cc1ccc([N+](=O)[O-])c(C)c1`, the mutagenic call reads like this: under setting [15], “inactive; negative”; (Test System: AMES SALMONELLA TYPHIMURIUM, Strain/Indicator: TA98, Metabolic Activation: RAT, LIVER, S-9, KANECHLOR 500, Method: PREINCUBATION) “inactive; negative”; under setting [17], “inactive; negative”.

In the case of `CCCN(CCC)CCc1cccc2[nH]c3c(C)ccc(C)c3c12`, the mutagenic call is “inactive; negative” under setting [13]; “active; positive” (Test System: AMES SALMONELLA TYPHIMURIUM, Strain/Indicator: TA98, Metabolic Activation: RAT, LIVER, S-9, PHENOBARBITAL AND 5,6-BENZOFLAVONE, Method: STANDARD PLATE); “inactive; negative” under setting [14]; “active; positive” (Test System: AMES SALMONELLA TYPHIMURIUM, Strain/Indicator: TA100, Metabolic Activation: RAT, LIVER, S-9, PHENOBARBITAL AND 5,6-BENZOFLAVONE, Method: STANDARD PLATE); “active; positive” (Test System: UDS HUMAN HEPATOCYTES, Strain/Indicator: THY INCORP, Metabolic Activation: NONE, Method: IN VITRO); “active; positive” (Test System: UDS RAT HEPATOCYTES, Strain/Indicator: THY INCORP, Metabolic Activation: NONE, Method: IN VIVO-IN VITRO).

Take `Cc1cc(=O)oc2cc(O)cc(O)c12`: the mutagenic call reads like this: (Test System: AMES SALMONELLA TYPHIMURIUM, Strain/Indicator: TA98, Metabolic Activation: HAMSTER, LIVER, S-9, AROCLOR 1254, Method: PREINCUBATION) “inactive; negative”; under setting [15], “inactive; negative”; under setting [16], “inactive; negative”; (Test System: AMES SALMONELLA TYPHIMURIUM, Strain/Indicator: TA100, Metabolic Activation: HAMSTER, LIVER, S-9, AROCLOR 1254, Method: PREINCUBATION) “inactive; negative”; under setting [17], “inactive; negative”; under setting [18], “inactive; negative”. The mutagenic call reads like this: (Test System: AMES SALMONELLA TYPHIMURIUM, Strain/Indicator: TA1535, Metabolic Activation: HAMSTER, LIVER, S-9, AROCLOR 1254, Method: PREINCUBATION) “inactive; negative”; (Test System: AMES SALMONELLA TYPHIMURIUM, Strain/Indicator: TA1535, Metabolic Activation: NONE, Method: PREINCUBATION) “inactive; negative”; (Test System: AMES SALMONELLA TYPHIMURIUM, Strain/Indicator: TA1535, Metabolic Activation: RAT, LIVER, S-9, AROCLOR 1254, Method: PREINCUBATION) “inactive; negative”; (Test System: AMES SALMONELLA TYPHIMURIUM, Strain/Indicator: TA1537, Metabolic Activation: HAMSTER, LIVER, S-9, AROCLOR 1254, Method: PREINCUBATION) “inactive; negative”; (Test System: AMES SALMONELLA TYPHIMURIUM, Strain/Indicator: TA1537, Metabolic Activation: NONE, Method: PREINCUBATION) “inactive; negative”; (Test System: AMES SALMONELLA TYPHIMURIUM, Strain/Indicator: TA1537, Metabolic Activation: RAT, LIVER, S-9, AROCLOR 1254, Method: PREINCUBATION) “inactive; negative”.

With `Cc1ccc(C2CO2)cc1` (stereo not drawn), the mutagenic call (Test System: E. COLI, Strain/Indicator: WP2 UVRA, Metabolic Activation: NONE, Method: STANDARD PLATE) was “active; positive”.
